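Each compound was tested at five concentrations against cells in 96-well plates for 48 hours. GI50 is the concentration that inhibits growth by half.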 The source made the active and inactive calls. No stated cut-off is given here; in the data, active = GI50 up to about 1.1 µM and inactive = higher.
Experiments:
Experiment in all cases: NCI-60 cell line screen, 48 h
786-0 = system: 786-0
A498 = system: A498
A549 = system: A549
ACHN = system: ACHN
BT-549 = system: BT-549
CAKI-1 = system: CAKI-1
CCRF-CEM = system: CCRF-CEM
COLO 205 = system: COLO 205
DU-145 = system: DU-145
EKVX = system: EKVX
HCT-116 = system: HCT-116
HCT-15 = system: HCT-15
HL-60 = system: HL-60
HOP-62 = system: HOP-62
HOP-92 = system: HOP-92
HT-29 = system: HT-29
Hs-578T = system: Hs-578T
IGROV-1 = system: IGROV-1
K562 = system: K562
LOX IMVI = system: LOX IMVI
M14 = system: M14
MCF7 = system: MCF7
MDA-MB-231 = system: MDA-MB-231
MDA-MB-435 = system: MDA-MB-435
MDA-N = system: MDA-N
MOLT-4 = system: MOLT-4
Malme-3M = system: Malme-3M
NCI-H226 = system: NCI-H226
NCI-H23 = system: NCI-H23
NCI-H460 = system: NCI-H460
NCI-H522 = system: NCI-H522
NCI/ADR-RES = system: NCI/ADR-RES
OVCAR-3 = system: OVCAR-3
OVCAR-4 = system: OVCAR-4
OVCAR-5 = system: OVCAR-5
OVCAR-8 = system: OVCAR-8
PC-3 = system: PC-3
RXF 393 = system: RXF 393
SF-268 = system: SF-268
SF-295 = system: SF-295
SF-539 = system: SF-539
SK-MEL-28 = system: SK-MEL-28
SK-MEL-2 = system: SK-MEL-2
SK-MEL-5 = system: SK-MEL-5
SK-OV-3 = system: SK-OV-3
SN12C = system: SN12C
SNB-19 = system: SNB-19
SNB-75 = system: SNB-75
SR = system: SR
SW-620 = system: SW-620
T47D = system: T47D
TK-10 = system: TK-10
U-251 = system: U-251
UACC-257 = system: UACC-257
UACC-62 = system: UACC-62
UO-31 = system: UO-31
KM12 = system: KM12
RPMI-8226 = system: RPMI-8226

Measured: GI50

CC(=O)OCOC(=O)CN(CC(=O)OCOC(C)=O)Cc1cc2c(cc1OC(C)=O)Oc1cc(OC(C)=O)c(CN(CC(=O)OCOC(C)=O)CC(=O)OCOC(C)=O)cc1C21OC(=O)c2ccccc21
1.66 µM: HCT-15
active: 786-0 0.346 µM | A549 0.953 µM | BT-549 0.265 µM | CCRF-CEM 0.11 µM | COLO 205 0.594 µM | HCT-116 0.303 µM | HL-60 0.01 µM | HOP-62 1.1 µM | HOP-92 1.05 µM | HT-29 0.483 µM | Hs-578T 0.345 µM | IGROV-1 0.277 µM | K562 0.122 µM | LOX IMVI 0.299 µM | MCF7 0.342 µM | MDA-MB-435 0.782 µM | MDA-N 0.309 µM | MOLT-4 0.241 µM | Malme-3M 0.902 µM | NCI-H23 0.481 µM | NCI-H460 0.366 µM | NCI-H522 0.237 µM | OVCAR-3 0.92 µM | OVCAR-4 0.998 µM | RXF 393 0.34 µM | SF-539 0.255 µM | SK-MEL-28 0.484 µM | SK-MEL-2 0.369 µM | SK-MEL-5 0.953 µM | SR 0.016 µM | SW-620 0.759 µM | TK-10 0.741 µM | UACC-257 0.344 µM | UACC-62 0.232 µM
inactive: A498 1.25 µM | ACHN 1.38 µM | CAKI-1 2.34 µM | DU-145 1.47 µM | EKVX 2.52 µM | M14 1.16 µM | MDA-MB-231 1.45 µM | NCI-H226 1.34 µM | NCI/ADR-RES 11 µM | OVCAR-5 2.94 µM | OVCAR-8 1.15 µM | PC-3 1.42 µM | SF-268 1.27 µM | SF-295 1.59 µM | SK-OV-3 2.54 µM | SN12C 1.13 µM | SNB-19 1.27 µM | SNB-75 1.36 µM | T47D 1.4 µM | U-251 1.87 µM | UO-31 1.82 µM

CN(C)CCCNc1ccnc2cc([N+](=O)[O-])ccc12
inactive: 786-0 10.4 µM | A498 17.2 µM | A549 22.5 µM | ACHN 19 µM | BT-549 19.1 µM | CAKI-1 26.9 µM | CCRF-CEM > 100 µM | COLO 205 2.65 µM | DU-145 27.8 µM | HCT-116 6.31 µM | HOP-62 16 µM | HOP-92 3.38 µM | HT-29 2.68 µM | Hs-578T 17.9 µM | IGROV-1 4.06 µM | K562 > 100 µM | KM12 10.2 µM | LOX IMVI 11.4 µM | M14 12 µM | MCF7 4.47 µM | MDA-MB-231 13.3 µM | MDA-MB-435 14.8 µM | MDA-N 12.1 µM | MOLT-4 > 100 µM | Malme-3M 3.44 µM | NCI-H226 14.9 µM | NCI-H23 11.7 µM | NCI-H460 4.97 µM | NCI-H522 3.6 µM | NCI/ADR-RES 20 µM | OVCAR-3 5.11 µM | OVCAR-4 3.35 µM | OVCAR-5 20.7 µM | OVCAR-8 13.9 µM | PC-3 14.1 µM | RPMI-8226 59.2 µM | RXF 393 11.2 µM | SF-268 21 µM | SF-295 20.4 µM | SF-539 16.3 µM | SK-MEL-28 36.2 µM | SK-MEL-2 14.5 µM | SK-MEL-5 11.9 µM | SK-OV-3 21.2 µM | SN12C 17.2 µM | SNB-75 23.3 µM | SR > 100 µM | SW-620 7.45 µM | T47D 5.98 µM | TK-10 30.7 µM | U-251 23.7 µM | UACC-257 13.9 µM | UACC-62 18.8 µM | UO-31 16.9 µM
12.1 µM: HCT-15

— ChEMBL document CHEMBL1201862, “PubChem BioAssay data set” (2004)
